Some results are limits rather than exact numbers.

One test deals with T1, HiBit-BRM fusion protein (Homo sapiens, UniProt P51531).
T1 construct: expressed in transfected cells
The test is described as follows: HiBiT-BRM cell-based degradation assay (Nano-Glo HiBiT Lytic Detection, 24 h). Conditions: HeLa cells expressing HiBiT-BRM; for DC50: read-out: BRM HiBit Degradation IC50; for BRM HiBit Degradation Maximum measured: top dose 30 μM. On the procedure: Procedure: A stable HeLa cell line expressing HiBiT-BRM was generated. On day 0, 5000 cells were seeded in 40 μL of media into each well of 384-well cell culture plates. On day 1, cells were treated with 120 nL DMSO or 120 nL of 3-fold serially DMSO-diluted compounds (10 points in duplicate with 30 μM as final top dose). Subsequently plates were incubated for 24 h in a standard tissue culture incubator and equilibrated at room temperature for 15 minutes. Nano-Glo HiBiT Lytic Detection System (Promega N3050) reagent was freshly prepared and 20 ul was added to each well. Upon addition of this LgBit-containing reagent, the HiBiT and LgBiT proteins associate to form the luminescent NanoBiT luciferase. The plates were shaken for 10 minutes at room temperature and the bioluminescence read using an EnVision plate reader (PerkinElmer).
(§1) The degradation % was calculated using the following formula: % degradation=100%−100%×(LumSample−LumLC)/(LumHC−LumLC). DMSO treated cells are employed as High Control (HC) and 2 μM of a known BRM/BRG1 degrader standard treated cells are employed as Low Control (LC).
(In general: The HiBiT peptide binds its large partner to form an active luciferase.)

The target in test [1] is T2, HiBit-BRG1 fusion protein (Homo sapiens, UniProt P51532).
T2 construct: expressed in transfected cells
T2 sequence (P51532 whole entry, the tested form may be a part): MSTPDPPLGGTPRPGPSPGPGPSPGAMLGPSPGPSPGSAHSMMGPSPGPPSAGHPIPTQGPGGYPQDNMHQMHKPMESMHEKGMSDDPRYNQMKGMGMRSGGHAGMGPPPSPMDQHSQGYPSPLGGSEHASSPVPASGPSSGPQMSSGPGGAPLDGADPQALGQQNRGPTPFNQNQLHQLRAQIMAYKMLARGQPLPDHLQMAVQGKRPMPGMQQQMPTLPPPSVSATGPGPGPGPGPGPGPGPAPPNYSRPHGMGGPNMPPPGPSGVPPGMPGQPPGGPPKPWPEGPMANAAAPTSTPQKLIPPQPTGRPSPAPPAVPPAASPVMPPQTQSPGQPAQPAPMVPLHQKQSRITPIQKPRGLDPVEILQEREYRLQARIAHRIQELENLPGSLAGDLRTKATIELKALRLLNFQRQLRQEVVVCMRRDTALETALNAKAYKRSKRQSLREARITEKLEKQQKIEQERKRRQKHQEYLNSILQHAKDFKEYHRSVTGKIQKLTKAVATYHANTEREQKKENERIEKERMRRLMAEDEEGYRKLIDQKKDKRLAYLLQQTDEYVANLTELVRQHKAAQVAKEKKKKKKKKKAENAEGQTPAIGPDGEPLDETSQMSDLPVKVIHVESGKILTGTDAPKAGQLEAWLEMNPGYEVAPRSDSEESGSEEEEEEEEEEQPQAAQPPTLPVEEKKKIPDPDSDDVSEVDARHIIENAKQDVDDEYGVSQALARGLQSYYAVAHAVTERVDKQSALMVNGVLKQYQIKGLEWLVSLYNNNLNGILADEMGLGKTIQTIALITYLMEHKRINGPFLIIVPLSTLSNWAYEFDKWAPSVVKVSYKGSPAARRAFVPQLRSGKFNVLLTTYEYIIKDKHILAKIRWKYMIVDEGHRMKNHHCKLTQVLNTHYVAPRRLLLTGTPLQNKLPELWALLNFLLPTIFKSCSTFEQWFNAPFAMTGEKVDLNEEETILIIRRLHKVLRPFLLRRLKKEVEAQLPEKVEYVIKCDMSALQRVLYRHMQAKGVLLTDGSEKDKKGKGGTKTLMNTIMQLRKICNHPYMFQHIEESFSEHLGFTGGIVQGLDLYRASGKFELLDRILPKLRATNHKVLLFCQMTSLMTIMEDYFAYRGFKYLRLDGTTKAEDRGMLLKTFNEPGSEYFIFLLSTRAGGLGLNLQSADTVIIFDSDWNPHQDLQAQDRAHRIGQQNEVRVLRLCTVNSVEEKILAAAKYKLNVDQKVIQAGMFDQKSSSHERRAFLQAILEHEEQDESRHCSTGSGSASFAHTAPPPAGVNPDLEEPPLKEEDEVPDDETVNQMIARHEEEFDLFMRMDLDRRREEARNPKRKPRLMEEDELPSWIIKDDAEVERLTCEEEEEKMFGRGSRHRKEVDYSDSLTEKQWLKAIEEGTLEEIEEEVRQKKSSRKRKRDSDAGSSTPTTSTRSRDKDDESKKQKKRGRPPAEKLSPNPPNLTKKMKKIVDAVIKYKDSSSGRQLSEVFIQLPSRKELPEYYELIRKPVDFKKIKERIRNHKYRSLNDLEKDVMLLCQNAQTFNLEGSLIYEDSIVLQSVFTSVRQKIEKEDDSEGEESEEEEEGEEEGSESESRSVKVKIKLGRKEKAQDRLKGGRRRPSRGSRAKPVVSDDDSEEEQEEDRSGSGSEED
Put plainly: HiBiT-BRG1 cell-based degradation assay (Nano-Glo HiBiT Lytic Detection, 24 h). Conditions: HeLa cells expressing HiBit-BRG1 and LgBit; for DC50: read-out: BRG1 HiBit Degradation IC50; for Dmax: HeLa, top dose 30 μM, read-out: BRG1 HiBit Degradation Maximum measured. On the procedure:
Procedure: A stable HeLa cell line expressing HiBiT-BRM was generated. On day 0, 5000 cells were seeded in 40 μL of media into each well of 384-well cell culture plates. […] Nano-Glo HiBiT Lytic Detection System (Promega N3050) reagent was freshly prepared and 20 ul was added to each well. Upon addition of this LgBit-containing reagent, the HiBiT and LgBiT proteins associate to form the luminescent NanoBiT luciferase. The plates were shaken for 10 minutes at room temperature and the bioluminescence read using an EnVision plate reader (PerkinElmer).
For measurement of BRG1 degradation, a stable HeLa cell line expressing HiBit-BRG1 and LgBit was generated. The same protocol as above was then followed.
as §1

T1 sequence (P51531 whole entry, the tested form may be a part): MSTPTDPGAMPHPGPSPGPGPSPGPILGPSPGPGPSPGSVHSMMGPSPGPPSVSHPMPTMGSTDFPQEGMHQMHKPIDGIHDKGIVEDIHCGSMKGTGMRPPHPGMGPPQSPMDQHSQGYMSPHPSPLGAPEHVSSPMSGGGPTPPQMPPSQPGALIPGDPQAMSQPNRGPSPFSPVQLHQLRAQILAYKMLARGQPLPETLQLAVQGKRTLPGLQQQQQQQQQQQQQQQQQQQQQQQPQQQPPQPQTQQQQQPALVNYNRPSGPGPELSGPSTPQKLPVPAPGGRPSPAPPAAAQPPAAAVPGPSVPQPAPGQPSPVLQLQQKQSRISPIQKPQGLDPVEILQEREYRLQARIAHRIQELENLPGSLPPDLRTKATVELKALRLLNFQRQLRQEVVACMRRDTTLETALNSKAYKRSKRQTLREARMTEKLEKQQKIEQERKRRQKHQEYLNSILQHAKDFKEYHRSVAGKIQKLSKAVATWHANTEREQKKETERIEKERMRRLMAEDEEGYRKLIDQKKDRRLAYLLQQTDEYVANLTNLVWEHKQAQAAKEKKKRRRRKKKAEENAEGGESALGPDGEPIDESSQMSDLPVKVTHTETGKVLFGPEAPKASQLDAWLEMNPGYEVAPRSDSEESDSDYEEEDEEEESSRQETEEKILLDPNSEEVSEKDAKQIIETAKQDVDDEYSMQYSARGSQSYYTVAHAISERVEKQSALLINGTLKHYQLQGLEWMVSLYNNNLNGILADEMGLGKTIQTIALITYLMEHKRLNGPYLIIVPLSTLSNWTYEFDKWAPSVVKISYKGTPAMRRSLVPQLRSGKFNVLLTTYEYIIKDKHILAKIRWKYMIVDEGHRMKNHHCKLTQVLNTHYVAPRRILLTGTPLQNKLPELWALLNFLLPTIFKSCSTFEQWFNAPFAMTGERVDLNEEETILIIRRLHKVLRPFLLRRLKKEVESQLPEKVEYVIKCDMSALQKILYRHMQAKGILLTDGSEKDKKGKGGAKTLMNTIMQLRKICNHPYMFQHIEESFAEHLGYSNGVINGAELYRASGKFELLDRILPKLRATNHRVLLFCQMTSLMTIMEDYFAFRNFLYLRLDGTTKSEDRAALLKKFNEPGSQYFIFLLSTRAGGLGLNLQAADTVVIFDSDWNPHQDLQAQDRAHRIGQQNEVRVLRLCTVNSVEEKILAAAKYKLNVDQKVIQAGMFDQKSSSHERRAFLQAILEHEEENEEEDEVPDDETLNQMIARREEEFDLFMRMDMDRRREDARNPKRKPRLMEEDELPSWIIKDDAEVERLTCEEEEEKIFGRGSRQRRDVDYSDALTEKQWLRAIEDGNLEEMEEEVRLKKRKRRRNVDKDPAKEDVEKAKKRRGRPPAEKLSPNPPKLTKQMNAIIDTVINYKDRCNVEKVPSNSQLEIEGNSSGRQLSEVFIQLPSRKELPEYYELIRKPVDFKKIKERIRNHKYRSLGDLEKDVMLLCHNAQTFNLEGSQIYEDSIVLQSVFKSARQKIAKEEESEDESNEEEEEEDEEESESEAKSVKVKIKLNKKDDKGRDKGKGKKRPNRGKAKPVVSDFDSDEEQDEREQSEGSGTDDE

Turning to `Cc1ncsc1-c1ccc(CNC(=O)[C@@H]2C[C@@H](O)CN2C(=O)[C@@H](NC(=O)CCOCCOCCC(=O)NCc2cccc(-c3cccc(-c4csc(NC(=O)CNC(=O)c5ccn(S(C)(=O)=O)c5)n4)c3)c2)C(C)(C)C)cc1` [Compound 1, N-(2-((4-(3′-((S)-14-((2S,4R)-4-hydroxy-2-((4-(4-methylthiazol-5-yl)benzyl)carbamoyl)pyrrolidine-1-carbonyl)-15,15-dimethyl-3,12-dioxo-6,9-dioxa-2,13-diazahexadecyl)-[1,1′-biphenyl]-3-yl)thiazol-2-yl)amino)-2-oxoethyl)-1-(methylsulfonyl)-1H-pyrrole-3-carboxamide], on HiBit-BRM fusion protein, the DC50 lay within 0.1 to 1 µM and the “BRM HiBit Degradation Maximum measured” value is recorded as “A (‘A’ = Maximum degradation >75%)”. For the same compound, in test [1], the DC50 was in the range of 0.1 to 1 µM and the Dmax was above 75%.
`CS(=O)(=O)n1ccc(C(=O)NCC(=O)Nc2nc(-c3cccc(-c4ccn(CC(=O)NCCCCCNc5cccc6c5C(=O)N(C5CCC(=O)NC5=O)C6=O)n4)c3)cs2)c1` (stereo not drawn) [Compound 2, N-[2-[[4-[3-[1-[2-[5-[[2-(2,6-dioxo-3-piperidyl)-1,3-dioxoisoindolin-4-yl]amino]pentylamino]-2-oxo-ethyl]pyrazol-3-yl]phenyl]thiazol-2-yl]amino]-2-oxo-ethyl]-1-methylsulfonylpyrrole-3-carboxamide]: on HiBit-BRM fusion protein, the DC50 was above 10 µM and the “BRM HiBit Degradation Maximum measured” value is recorded as “C (‘C’ = Maximum degradation <50%)”. In addition, in test [1], the DC50 was above 10 µM and the Dmax is below 50%.
As to `CS(=O)(=O)n1ccc(C(=O)NCC(=O)Nc2nc(-c3cccc(-c4ccn(CC(=O)NCCOCCOCCNc5cccc6c5C(=O)N(C5CCC(=O)NC5=O)C6=O)n4)c3)cs2)c1` (stereo not drawn) [Compound 3, N-[2-[[4-[3-[1-[2-[2-[2-[2-[[2-(2,6-dioxo-3-piperidyl)-1,3-dioxoisoindolin-4-yl]amino]ethoxy]ethoxy]ethylamino]-2-oxo-ethyl]pyrazol-3-yl]phenyl]thiazol-2-yl]amino]-2-oxo-ethyl]-1-methylsulfonyl-pyrrole-3-carboxamide], on HiBit-BRM fusion protein, the DC50 is above 10 µM and the “BRM HiBit Degradation Maximum measured” value is listed as “C (‘C’ = Maximum degradation <50%)”. For the same compound, in test [1], the DC50 was above 10 µM and the Dmax is below 50%.
`CS(=O)(=O)n1ccc(C(=O)NCC(=O)Nc2nc(-c3cccc(-c4ccn(CC(=O)N5CCC(C6CCN(C(=O)COc7cccc8c7C(=O)N(C7CCC(=O)NC7=O)C8=O)CC6)CC5)n4)c3)cs2)c1` (stereo not drawn) [Compound 4, N-[2-[[4-[3-[1-[2-[4-[1-[2-[2-(2,6-dioxo-3-piperidyl)-1,3-dioxoisoindolin-4-yl]oxyacetyl]-4-piperidyl]-1-piperidyl]-2-oxo-ethyl]pyrazol-3-yl]phenyl]thiazol-2-yl]amino]-2-oxo-ethyl]-1-methylsulfonyl-pyrrole-3-carboxamide]: on HiBit-BRM fusion protein, the DC50 was above 10 µM and the “BRM HiBit Degradation Maximum measured” value is “C (‘C’ = Maximum degradation <50%)”. For the same compound, in test [1], the DC50 is above 10 µM and the Dmax is below 50%.
`CS(=O)(=O)n1ccc(C(=O)NCC(=O)Nc2nc(-c3cccc(-c4ccn(CC(=O)NCCCCCCCCNC(=O)COc5cccc6c5C(=O)N(C5CCC(=O)NC5=O)C6=O)n4)c3)cs2)c1` (stereo not drawn) [Compound 5, N-[2-[[4-[3-[1-[2-[8-[[2-[2-(2,6-dioxo-3-piperidyl)-1,3-dioxoisoindolin-4-yl]oxyacetyl]amino]octylamino]-2-oxo-ethyl]pyrazol-3-yl]phenyl]thiazol-2-yl]amino]-2-oxo-ethyl]-1-methylsulfonyl-pyrrole-3-carboxamide]: at HiBit-BRM fusion protein, the DC50 was above 10 µM and the “BRM HiBit Degradation Maximum measured” value is reported as “C (‘C’ = Maximum degradation <50%)”. In test [1], the DC50 is above 10 µM and the Dmax was below 50%.
For `CC(C)(C(=O)NCCOCCOCCNc1cccc2c1C(=O)N(C1CCC(=O)NC1=O)C2=O)n1ccc(-c2cccc(-c3csc(NC(=O)CNC(=O)c4ccn(S(C)(=O)=O)c4)n3)c2)n1` (stereo not drawn) [Compound 6, N-(2-((4-(3-(1-(1-((2-(2-(2-((2-(2,6-dioxopiperidin-3-yl)-1,3-dioxoisoindolin-4-yl)amino)ethoxy)ethoxy)ethyl)amino)-2-methyl-1-oxopropan-2-yl)-1H-pyrazol-3-yl)phenyl)thiazol-2-yl)amino)-2-oxoethyl)-1-(methylsulfonyl)-1H-pyrrole-3-carboxamide], at HiBit-BRM fusion protein, the DC50 is above 10 µM and the “BRM HiBit Degradation Maximum measured” value was “C (‘C’ = Maximum degradation <50%)”. In test [1], the DC50 was above 10 µM and the Dmax is below 50%.
Regarding `CC(C)(C(=O)NCCCCCNc1cccc2c1C(=O)N(C1CCC(=O)NC1=O)C2=O)n1ccc(-c2cccc(-c3csc(NC(=O)CNC(=O)c4ccn(S(C)(=O)=O)c4)n3)c2)n1` (stereo not drawn) [Compound 7, N-[2-[[4-[3-[1-[2-[5-[[2-(2,6-dioxo-3-piperidyl)-1,3-dioxo-isoindolin-4-yl]amino]pentylamino]-1,1-dimethyl-2-oxo-ethyl]pyrazol-3-yl]phenyl]thiazol-2-yl]amino]-2-oxo-ethyl]-1-methylsulfonyl-pyrrole-3-carboxamide], on HiBit-BRM fusion protein, the DC50 is above 10 µM and the “BRM HiBit Degradation Maximum measured” value is listed as “C (‘C’ = Maximum degradation <50%)”. In addition, in test [1], the DC50 is above 10 µM and the Dmax was below 50%.
For `CC(C)(C(=O)NCCCCCCCCNC(=O)COc1cccc2c1C(=O)N(C1CCC(=O)NC1=O)C2=O)n1ccc(-c2cccc(-c3csc(NC(=O)CNC(=O)c4ccn(S(C)(=O)=O)c4)n3)c2)n1` (stereo not drawn) [Compound 8, N-(2-((4-(3-(1-(1-((8-(2-((2-(2,6-dioxopiperidin-3-yl)-1,3-dioxoisoindolin-4-yl)oxy)acetamido)octyl)amino)-2-methyl-1-oxopropan-2-yl)-1H-pyrazol-3-yl)phenyl)thiazol-2-yl)amino)-2-oxoethyl)-1-(methylsulfonyl)-1H-pyrrole-3-carboxamide], at HiBit-BRM fusion protein, the DC50 lay within 0.1 to 1 µM; the “BRM HiBit Degradation Maximum measured” value was “B (‘B’ = Maximum degradation ≥50% and ≤75%)”. In test [1], the DC50 fell in the range of 0.1 to 1 µM and the Dmax is 50 to 75%.
Regarding `CN(CC(=O)NCCOCCOCCNc1cccc2c1C(=O)N(C1CCC(=O)NC1=O)C2=O)c1cc(-c2cccc(-c3csc(NC(=O)CNC(=O)c4ccn(S(C)(=O)=O)c4)n3)c2)ccn1` (stereo not drawn) [Compound 9, N-(2-((4-(3-(2-((2-((2-(2-(2-((2-(2,6-dioxopiperidin-3-yl)-1,3-dioxoisoindolin-4-yl)amino)ethoxy)ethoxy)ethyl)amino)-2-oxoethyl)(methyl)amino)pyridin-4-yl)phenyl)thiazol-2-yl)amino)-2-oxoethyl)-1-(methylsulfonyl)-1H-pyrrole-3-carboxamide], at HiBit-BRM fusion protein, the DC50 was above 10 µM and the “BRM HiBit Degradation Maximum measured” value was “C (‘C’ = Maximum degradation <50%)”. Also, in test [1], the DC50 was above 10 µM and the Dmax was below 50%.
On to `CC(C)(C(=O)N1CCC(C2CCN(C(=O)COc3cccc4c3C(=O)N(C3CCC(=O)NC3=O)C4=O)CC2)CC1)n1ccc(-c2cccc(-c3csc(NC(=O)CNC(=O)c4ccn(S(C)(=O)=O)c4)n3)c2)n1` (stereo not drawn) [Compound 10, N-[2-[[4-[3-[1-[2-[4-[1-[2-[2-(2,6-dioxo-3-piperidyl)-1,3-dioxo-isoindolin-4-yl]oxyacetyl]-4-piperidyl]-1-piperidyl]-1,1-dimethyl-2-oxo-ethyl]pyrazol-3-yl]phenyl]thiazol-2-yl]amino]-2-oxo-ethyl]-1-methylsulfonylpyrrole-3-carboxamide], for which, on HiBit-BRM fusion protein, the DC50 was above 10 µM and the “BRM HiBit Degradation Maximum measured” value is “C (‘C’ = Maximum degradation <50%)”. In addition, in test [1], the DC50 was above 10 µM and the Dmax is below 50%.
Consider `CS(=O)(=O)n1ccc(C(=O)NCC(=O)Nc2nc(-c3cccc(-c4ccnc(C5(C(=O)NCCOCCOCCNc6cccc7c6C(=O)N(C6CCC(=O)NC6=O)C7=O)CC5)c4)c3)cs2)c1` (stereo not drawn) [Compound 11, N-[2-[[4-[3-[2-[1-[2-[2-[2-[[2-(2,6-dioxo-3-piperidyl)-1,3-dioxo-isoindolin-4-yl]amino]ethoxy]ethoxy]ethylcarbamoyl]cyclopropyl]-4-pyridyl]phenyl]thiazol-2-yl]amino]-2-oxo-ethyl]-1-methylsulfonylpyrrole-3-carboxamide], for which, on HiBit-BRM fusion protein, the DC50 is above 10 µM and the “BRM HiBit Degradation Maximum measured” value is “C (‘C’ = Maximum degradation <50%)”. For the same compound, in test [1], the DC50 is 1 to 10 µM and the Dmax lay in the range of 50 to 75%.
Consider `Cc1ncsc1-c1ccc(CNC(=O)[C@@H]2C[C@@H](O)CN2C(=O)[C@@H](NC(=O)CCCCCCCCCCCC(=O)NCc2cccc(-c3cccc(-c4csc(NC(=O)CNC(=O)c5ccn(S(C)(=O)=O)c5)n4)c3)c2)C(C)(C)C)cc1` [Compound 114], for which, in test [1], the Dmax is above 75%.

Values taken from patent US12662479B2 (Foghorn Therapeutics Inc., priority 2020, dated 2026).
